In one assay the target is T1, CCK2 (Homo sapiens, UniProt P32239).
T1 construct: expressed in transfected cells; host or cells: CHO-AEQ (CHO-K1 with mitochondrial apoaequorin)
Description: Cholecystokinin receptor Aequorin assay. The format is cell-based. The following applies: antagonism. The procedure:
(§1) CHO-K1 cells coexpressing mitochondrial apoaequorin and the recombinant human receptor of interest were grown to mid-log phase in culture media without antibiotics and then detached with PBS-EDTA, centrifuged and resuspended in assay buffer (DMEM/HAM's F12 with HEPES, without phenol red+0.1% BSA, protease free) at a concentration of 1×10^6 cell/mL. Cells were incubated at room temperature for at least 4 hours with coelenterazine h. Reference agonist/antagonist was tested to evaluate the performance of the assay and to determine EC50/IC50.
(§2) 50 μL of the cell suspension was mixed with 50 μL of test or reference agonist in a 96-well plate. […] For antagonist testing, 100 μL of the reference agonist at its EC80 was injected on the mix of cells and test compound, following an incubation of 15 minutes after the first injection. The resulting emission of light was r recorded using Hamamatsu Functional Drug Screening System 6000 (FDSS 6000) luminometer. To standardize the emission of recorded light (and determine of the “100% signal”) across plates and across different experiments, some wells contained 100 μM digitonin or a saturating concentration of ATP (20 μM).

For a further assay, the target named is T2, α1A receptor (Homo sapiens, UniProt P35348).
T2 construct: expressed in transfected cells
T2 sequence (P35348 whole entry): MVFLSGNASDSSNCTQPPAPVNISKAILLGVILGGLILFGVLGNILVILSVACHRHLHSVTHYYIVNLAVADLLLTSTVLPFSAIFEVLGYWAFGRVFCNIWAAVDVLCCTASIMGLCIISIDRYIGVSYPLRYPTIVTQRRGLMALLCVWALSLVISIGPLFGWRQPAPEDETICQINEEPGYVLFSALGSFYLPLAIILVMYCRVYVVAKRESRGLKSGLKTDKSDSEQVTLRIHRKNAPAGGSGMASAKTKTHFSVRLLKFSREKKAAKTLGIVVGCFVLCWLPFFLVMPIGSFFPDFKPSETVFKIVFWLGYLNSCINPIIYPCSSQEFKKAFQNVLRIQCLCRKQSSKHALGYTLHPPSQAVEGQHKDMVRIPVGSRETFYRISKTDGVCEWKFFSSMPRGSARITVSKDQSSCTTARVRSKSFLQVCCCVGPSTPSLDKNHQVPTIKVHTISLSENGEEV
Description: Competitive antagonist activity, adrenergic α1A. The format is cell-based. The settings on record: read-out: IC50, α1A antagonism.

For assay [1], the target named is T3, human 5-HT2B receptor (Homo sapiens, UniProt P41595).
T3 construct: host or cells: CHO-K1 coexpressing mitochondrial apoaequorin
T3 sequence (P41595 whole entry): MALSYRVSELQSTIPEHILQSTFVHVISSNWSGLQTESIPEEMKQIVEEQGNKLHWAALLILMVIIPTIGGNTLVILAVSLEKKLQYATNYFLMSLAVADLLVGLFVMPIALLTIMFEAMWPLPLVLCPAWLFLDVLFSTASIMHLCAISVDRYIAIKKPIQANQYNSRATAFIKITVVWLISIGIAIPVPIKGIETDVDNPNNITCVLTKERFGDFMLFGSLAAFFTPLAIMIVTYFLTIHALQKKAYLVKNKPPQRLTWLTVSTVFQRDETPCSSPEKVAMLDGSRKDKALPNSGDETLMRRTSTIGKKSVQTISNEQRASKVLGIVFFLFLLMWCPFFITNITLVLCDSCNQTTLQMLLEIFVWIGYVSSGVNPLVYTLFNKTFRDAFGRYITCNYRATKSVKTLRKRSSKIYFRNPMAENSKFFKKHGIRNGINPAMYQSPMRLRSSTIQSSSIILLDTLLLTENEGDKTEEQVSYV
Description: Aequorin assay, agonist activity at 5-HT2B. The format is cell-based. The following applies: 0.01 nM to 20,000 nM; versus Emax of α-methyl-5-HT. The procedure:
Percentage activation values were determined for 2-CF3 dihydroergotamine at the 5-HT2B receptor.

Another assay deals with Opioid (OP1/OP2/OP3). Description: Opioid receptor GTPγS assays. Type of assay: biochemical, human. As to the method:
Reagents used were the following: Assay buffer (20 mM HEPES, pH 7.4; 100 mM NaCl; 10 μg/mL saponin; 30 mM MgCl2); Membranes (recombinant human receptor membrane extracts were thawed on ice and diluted in assay buffer to give 1000 μg/mL ([…]) and kept on ice); GDP (diluted in assay buffer to give 30 μM solution (3 μM final concentration); beads (PVT-WGA (Amersham, RPNQ001), diluted in assay buffer at 25 mg/mL (0.25 mg/10 μL)); GTPγ^35S (Perkin Elmer, NEG030X), diluted in assay buffer to give 0.1 nM (final concentration); and ligand (agonist/antagonist diluted in assay buffer).
Membranes were mixed with GDP (1:1) and incubated for at least 15 minutes on ice. In parallel GTPγ^35S was mixed with the beads (1:1) just before starting the reaction. The following reagents were successively added in the wells of an Optiplate (Perkin Elmer): 50 μL test compound or reference ligand, 20 μL of the membranes:GDP mix (then 15 minute incubation for antagonist test), 10 μL of reference agonist at historical EC80 (for antagonist test) or 10 μL of assay buffer (for agonist test) and 20 μL of the GTPγ^35S:beads mix. […] The plates were then centrifuged for 10 minutes at 2000 rpm and incubated at room temperature for 1 hour and counted for 1 min/well with a Perkin Elmer TopCount reader.

Another assay deals with T4, Calcitonin (CGRP) (Homo sapiens, UniProt O60894+Q16602).
T4 construct: expressed in transfected cells; host or cells: CHO-AEQ (CHO-K1 with mitochondrial apoaequorin)
T4 sequence (Q16602 23-461): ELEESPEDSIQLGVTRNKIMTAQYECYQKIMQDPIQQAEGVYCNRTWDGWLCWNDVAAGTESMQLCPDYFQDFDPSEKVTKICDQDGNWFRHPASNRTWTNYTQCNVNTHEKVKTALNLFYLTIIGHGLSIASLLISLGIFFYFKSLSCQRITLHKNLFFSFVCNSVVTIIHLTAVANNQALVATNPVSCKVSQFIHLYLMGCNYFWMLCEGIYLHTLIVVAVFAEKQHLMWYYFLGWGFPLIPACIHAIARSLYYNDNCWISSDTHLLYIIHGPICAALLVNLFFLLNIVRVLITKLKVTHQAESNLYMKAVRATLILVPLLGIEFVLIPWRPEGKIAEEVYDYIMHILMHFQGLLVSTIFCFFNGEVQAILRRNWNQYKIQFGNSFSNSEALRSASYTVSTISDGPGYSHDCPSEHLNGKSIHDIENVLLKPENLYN
T4 sequence (O60894 27-148 partner): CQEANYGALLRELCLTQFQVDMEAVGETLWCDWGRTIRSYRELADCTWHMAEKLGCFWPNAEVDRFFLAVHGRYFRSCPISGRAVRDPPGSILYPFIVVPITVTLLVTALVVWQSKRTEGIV
Description: CGRP receptor Aequorin assay. Type of assay: cell-based. As to the method: as §1, §2

Another assay deals with human α2C receptor (Homo sapiens, UniProt P18825). Description: GTPγS antagonist assay, α2C. The format is biochemical. The following applies: read-out: IC50, α2C antagonism.
Chain of human α2C receptor (P18825 whole entry): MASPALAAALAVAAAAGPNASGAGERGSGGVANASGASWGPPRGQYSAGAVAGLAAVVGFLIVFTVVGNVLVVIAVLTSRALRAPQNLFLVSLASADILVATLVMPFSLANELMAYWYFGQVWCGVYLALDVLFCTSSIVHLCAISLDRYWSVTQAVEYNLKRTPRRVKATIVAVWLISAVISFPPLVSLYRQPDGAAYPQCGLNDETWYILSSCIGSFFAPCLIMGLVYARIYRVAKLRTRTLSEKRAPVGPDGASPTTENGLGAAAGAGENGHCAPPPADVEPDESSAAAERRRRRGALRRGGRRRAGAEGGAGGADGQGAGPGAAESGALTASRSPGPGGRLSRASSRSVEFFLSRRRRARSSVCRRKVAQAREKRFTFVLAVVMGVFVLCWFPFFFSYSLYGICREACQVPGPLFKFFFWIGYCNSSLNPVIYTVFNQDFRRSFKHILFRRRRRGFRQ
The next assay concerns the target T5, Adenosine A2a (Homo sapiens, UniProt P29274).
T5 construct: expressed in transfected cells; host or cells: HEK293
Description: Adenosine A2a cAMP HTRF assay. The format is cell-based. The following applies: HEK293, cAMP. The procedure: (§3) Cells expressing the human recombinant receptor of interest were grown in media without antibiotic and detached by gentle flushing with PBS-EDTA (5 mM EDTA), recovered by centrifugation and resuspended in assay buffer (KRH: 5 mM KCl, 1.25 mM MgSO4, 124 mM NaCl, 25 mM HEPES, 13.3 mM glucose, 1.25 mM KH2PO4, 1.45 mM CaCl2, 0.5 g/L BSA). Dose response curves were performed in parallel with the reference compounds. For agonist tests (96-well plates), 12 μL of cells was mixed with 12 μL of the test compound at increasing concentrations and then incubated for 30 minutes at room temperature. Lysis buffer was added and after a 1 hour incubation, cAMP concentrations was determined according to the manufacturer specification with the HTRF kit. For antagonist tests (96-well plates), 12 μL of cells was mixed with 6 μL of the test compound at increasing concentrations and then incubated for 10 minutes. 6 μL of the reference agonist was added at a final concentration corresponding to the historical EC80. The plates were then incubated for 30 minutes at room temperature. Lysis buffer was added and after a 1 hour incubation, cAMP concentrations were determined according to the manufacturer specification, with the HTRF kit.
For orientation: TR-FRET usually uses a lanthanide donor and a delayed reading to cut background.

For a further assay, the system named is Calcitonin (AM1/AM2). Description: Calcitonin (AM1/AM2) cAMP HTRF assays. The format is cell-based, human. As to the method: as §3, with “For antagonist tests (96-well plates), 12 μL of cells was mixed with 6 μL of the test compound at increasing concentrations and then incubated for 10 minutes. 6 μL of the reference agonist was added at a final concentration corresponding to the historical EC80. The plates were then incubated for 30 minutes at room temperature.” left out
Cells expressing the human recombinant receptor of interest were grown in media without antibiotic and detached by gentle flushing with PBS-EDTA (5 mM EDTA), recovered by centrifugation and resuspended in assay buffer (KRH: 5 mM KCl, 1.25 mM MgSO4, 124 mM NaCl, 25 mM HEPES, 13.3 mM glucose, 1.25 mM KH2PO4, 1.45 mM CaCl2, 0.5 g/L BSA). […] Lysis buffer was added and after a 1 hour incubation, cAMP concentrations was determined according to the manufacturer specification with the HTRF kit. […]

The target of assay [2] is T3, human 5-HT2B receptor. Description: Aequorin assay, antagonist activity at 5-HT2B. The format is cell-based. As to the method: Percentage inhibition values were determined for 2-CF3 dihydroergotamine on the 5-HT2B receptor.
Another assay has as its target T6, α1D receptor (Homo sapiens, UniProt P25100).
T6 construct: expressed in transfected cells
Description: Competitive antagonist activity, adrenergic α1D. The format is cell-based. The following applies: read-out: IC50, α1D antagonism.

SMILES strings stand for the structures. “Also recorded” adds a separate entry of the source.

T5 sequence (P29274 whole entry): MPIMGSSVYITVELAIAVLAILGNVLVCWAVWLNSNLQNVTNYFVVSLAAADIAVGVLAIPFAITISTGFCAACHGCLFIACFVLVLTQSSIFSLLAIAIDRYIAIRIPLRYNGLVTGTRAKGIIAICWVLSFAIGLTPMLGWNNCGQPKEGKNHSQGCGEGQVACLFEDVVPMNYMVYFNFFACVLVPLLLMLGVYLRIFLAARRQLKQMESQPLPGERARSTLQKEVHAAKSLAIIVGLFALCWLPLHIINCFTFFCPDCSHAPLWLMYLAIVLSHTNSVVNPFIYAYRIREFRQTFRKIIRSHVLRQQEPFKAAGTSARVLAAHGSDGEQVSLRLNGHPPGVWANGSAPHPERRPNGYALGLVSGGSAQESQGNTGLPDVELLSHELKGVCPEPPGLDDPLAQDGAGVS
T6 sequence (P25100 whole entry): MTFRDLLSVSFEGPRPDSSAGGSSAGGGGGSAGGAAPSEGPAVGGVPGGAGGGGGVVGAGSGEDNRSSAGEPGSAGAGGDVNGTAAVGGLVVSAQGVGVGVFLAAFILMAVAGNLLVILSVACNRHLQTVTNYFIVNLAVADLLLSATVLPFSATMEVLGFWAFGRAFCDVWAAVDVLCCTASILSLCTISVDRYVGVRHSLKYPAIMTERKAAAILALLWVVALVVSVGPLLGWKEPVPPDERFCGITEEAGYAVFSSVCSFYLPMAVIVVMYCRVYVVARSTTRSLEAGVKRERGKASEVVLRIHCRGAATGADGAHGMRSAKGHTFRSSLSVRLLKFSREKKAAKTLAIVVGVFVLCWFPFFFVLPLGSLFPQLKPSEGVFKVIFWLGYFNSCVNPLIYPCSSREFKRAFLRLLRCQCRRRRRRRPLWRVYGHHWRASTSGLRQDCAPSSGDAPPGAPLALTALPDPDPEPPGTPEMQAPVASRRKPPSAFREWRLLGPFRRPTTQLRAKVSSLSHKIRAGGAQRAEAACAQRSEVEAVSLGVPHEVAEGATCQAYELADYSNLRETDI
T1 sequence (P32239 whole entry): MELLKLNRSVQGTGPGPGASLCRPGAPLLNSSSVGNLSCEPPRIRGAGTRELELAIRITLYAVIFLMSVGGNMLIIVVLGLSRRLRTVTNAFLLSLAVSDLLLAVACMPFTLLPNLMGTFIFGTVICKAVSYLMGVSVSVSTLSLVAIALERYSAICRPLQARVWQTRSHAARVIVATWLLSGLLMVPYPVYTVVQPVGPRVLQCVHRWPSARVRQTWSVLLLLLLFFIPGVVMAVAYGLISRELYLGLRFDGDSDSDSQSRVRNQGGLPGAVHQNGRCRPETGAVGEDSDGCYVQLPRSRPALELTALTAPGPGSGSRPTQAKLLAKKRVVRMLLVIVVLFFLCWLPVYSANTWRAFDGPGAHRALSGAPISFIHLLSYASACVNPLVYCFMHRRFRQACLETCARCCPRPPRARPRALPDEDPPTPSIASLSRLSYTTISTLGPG

For the compound `CN1C[C@H](C(=O)N[C@]2(C)O[C@@]3(O)[C@@H]4CCCN4C(=O)[C@H](Cc4ccccc4)N3C2=O)CC2c3cccc4[nH]c(C(F)(F)F)c(c34)CC21` (stereo partly drawn) [2-CF3-dihydroergotamine], the IC50 is more than 10 µM at CCK2; 207 nM at α1A receptor; 2780 nM at human α2C receptor; 204 nM on human 5-HT2B receptor [2] (reference agonist at its EC80, read-out: IC50, 5-HT2B antagonism); 40.2 nM at α1D receptor. The “agonist activity at the 5-HT2B receptor” value on human 5-HT2B receptor [1] is “no agonist activity; also recorded: little agonist activity”. For the same compound, the “Activity (Agonism: EC50; Antagonism: IC50)” value in the assay on Opioid (OP1/OP2/OP3), on Calcitonin (CGRP) and in the assay on Calcitonin (AM1/AM2) was “Inactive” each time. In addition, the Emax on Adenosine A2a was 25%. In addition, the EC50 at Adenosine A2a (read-out: EC50, Adenosine A2a agonism) worked out at 5.27 nM. For the same compound, the “antagonism of the 5-HT2B receptor” value on human 5-HT2B receptor [2] (FIG. 2) is “potent antagonism”.

A word on the IC50: it is the midpoint of a concentration-inhibition curve. Usually Emax stands for the greatest response seen or fitted, relative to the assay's reference. Usually EC50 stands for the midpoint of the concentration-response curve.

These data come from patent US20150133456A1, “FLUOROERGOLINE DERIVATIVES AND USES THEREOF” (MAP PHARMACEUTICALS, INC., priority 2012, published 2015).
